In patent US20240300945A1, “CLY SERIES COMPOUND, PREPARATION METHOD THEREFOR AND USE THEREOF IN PREPARATION OF DRUGS” (NANJING WELLBEST PHARMACEUTICAL CO., LTD, priority 2021, published 2024):

Key:
[1] = Pharmacokinetic properties of rats (bioavailability); assay type: in vivo; details: rat, po; male SD rats; intravenous 1 mg/kg, intragastric 5 mg/kg; plasma LC/MS/MS
Procedure: Male SD rats were randomly assigned to each group, 12 rats in each compound group, and then randomly divided into two groups. Six rats were administered intravenously (1 mg/kg), and blood was collected and plasma was separated respectively at 0.0833, 0.25, 0.5, 1, 2, 4, 6, 8, and 24 hours after administration. The other six rats were administered intragastrically (5 mg/kg), and blood was collected and plasma was separated respectively at 0.25, 0.5, 1, 2, 4, 6, 8, and 24 hours after administration. The concentration of each compound in plasma was determined by LC/MS/MS method, and the relevant pharmacokinetic parameters were calculated by using the software Phoenix WinNonlin 6.2.1, the bioavailability in rats was calculated, and the pharmacokinetic properties of each compound were evaluated.

[2] = system: chloasma model of guinea pig; test: Chloasma model of guinea pig: tyrosine, MDA content and SOD activity of skin tissue; assay type: in vivo; details: 0.25% cream on the skin once a day, 30 days
Text: 1.1.4 Preparation method of treatment cream: The excipient matrix components include methyl silicone oil (15%), stearic acid (6%), white vaseline (5%), liquid paraffin (5%), octadecanol (5%), glycerin (20%), alkyl aryl polyglycol ether (1%), fatty alcohol polyoxyethylene ether (1%), […] (1%), ethyl paraben (0.1%), distilled water (about 31-55%), and are mixed with appropriate amount of CLY series compounds to form 0.25% mixed emulsion. The cream matrix used in this embodiment refers to the matrix components after the active ingredients are removed from the cream.
According to the body weight, they were randomly divided into the model control group (applied cream matrix), blank control group (applied cream matrix), CLY-1 treatment group (applied 0.25% CLY-1 cream on the skin), CLY-2 treatment group (0.25% CLY-2 cream on the skin), CLY-3 treatment group (0.25% CLY-3 cream on the skin), CLY-4 treatment group (0.25% CLY-4 cream on the skin), CLY-5 treatment group (0.25% CLY-5 cream on the skin) CLY-8 treatment group (0.25% CLY-8 cream on the skin), CLY-11 treatment group (0.25% CLY-11 cream on the skin), CLY-19 treatment group (0.25% CLY-19 cream on the skin), CLY-36 treatment group (0.25% CLY-36 cream on the skin), CLY-39 treatment group (0.25% CLY-39 cream on the skin), positive treatment group (0.25% arbutin cream on the skin), 6 in each group. In addition to the blank control group, all guinea pigs in the other groups were injected with 20 mg/ml progesterone injection (7.5 mg/kg) into the muscle at the root of the hind leg, once a day, for 30 consecutive days to establish the chloasma model. […] After modeling, the guinea pigs in the model control group, blank control group, each CLY series treatment group, and positive treatment group were treated with corresponding cream on the back for intervention, once a day, for 30 consecutive days.
Took one piece of skin tissue from each guinea pig, separately. Washed it with precooled normal saline, removed subcutaneous fat and other connective tissue, and then wiped it dry. Each piece of skin tissue was cut to 0.5 g. Then put it into five small tubes containing 2.0 ml of precooled normal saline. The high-speed dispersion machine homogenizes at a speed of […], lasted for 10 seconds, repeated once, centrifuged at a speed of 3500 r/m for 15 minutes, and took the supernatant. Tyrosine was determined by HPLC, MDA was determined by the thiobarbituric acid method, SOD was determined by the xanthine oxidase method, and tyrosine, MDA content, and SOD activity were determined according to the instructions of the kit.
SPSS16.0 software was used for statistics. The measurement data were expressed by mean±standard deviation (x±s). The comparison between multiple groups was performed by one-way ANOVA, and the comparison between groups was performed by t-test. P<0.05 was statistically significant.

mouse eczema model = test: Mouse eczema model: ear thickness; assay type: in vivo, C57BL/6 mice; details: after modeling, 14th day; 0.1% cream for external use twice a day, 10 days (positive: aloxone)
Text: Preparation method of CLY cream: the matrix components included methyl silicone oil (15%), stearic acid (6%), white vaseline (5%), liquid paraffin (5%), octadecanol (5%), glycerin (20%), alkyl aryl polyglycol ether (1%), fatty alcohol polyoxyethylene ether (1%), Tween-807 (1%), ethyl paraben (0.1%), distilled water (about 31-55%), and it was mixed with an appropriate amount of CLY series compound liquid to form a mixed emulsion. The cream matrix used in this embodiment refers to the matrix components after the active ingredients were removed from the cream.
SPF grade female C57BL/6 mice were purchased at the age of 8 weeks (0.02 kg), 6 in each group, and randomly divided into the blank control group, model group, positive drug group, CLY-1 treatment group (0.1% CLY-1 cream for external use), CLY-2 treatment group (0.1% CLY-2 cream for external use), CLY-3 treatment group (0.1% CLY-3 cream for external use), CLY-4 treatment group (0.1% CLY-4 cream for external use), CLY-8 treatment group (0.1% CLY-8 cream for external use), CLY-11 treatment group (0.1% CLY-11 cream for external use) CLY-19 treatment group (0.1% CLY-19 cream for external use), CLY-36 treatment group (0.1% CLY-36 cream for external use) and CLY-39 treatment group (0.1% CLY-39 cream for external use).
Model establishment: the normal control group mice were smeared with 75% ethanol 14.3 ul on both ears, while the model group, positive drug group and treatment group were smeared with 1 nmol/L carpotriol liniment 14.3 ul on both ears at a regular time every day, and then smeared with 20 g/L OVA 25 ul after air drying, once a day, for 12 days to make a model.
From 4 days after the start of modeling, applied the cream matrix on the ear skin of mice in the blank control group and the model group, applied aloxone on the ear skin of mice in the positive drug group, and applied the treatment cream on the ear skin of mice in each treatment group respectively, twice a day in the morning and evening, for 10 consecutive days, took photos every day, and recorded scores.
The thickness of mouse auricle was measured and recorded with ear thickness measuring instrument before and on the 14th day respectively. After the measurement on the 14th day, the mice were sacrificed. Blood was taken and serum was separated.

What does the source list for Nc1ccccc1-c1ccc(C(=O)N(c2ncccc2Cl)[C@@H]2CCCNC2)cc1 [CLY-39]?
bioavailability [1]: 65.6%; MDA [2]: 10.81 ± 1.23 nmol/mL; SOD [2]: 103.16 ± 9.65 NU/ml; tyrosine [2]: 0.46 ± 0.05 µg; Ear thickness (mouse eczema model): 0.246 mm

Which bioavailability [1] does the source give for O=C(c1ccc(-c2ccccc2Cl)cc1)N(c1ncccc1Cl)[C@@H]1CCCNC1 [CLY-36] here?
The bioavailability was 68.6%.

And the MDA [2]?
The MDA was 11.83 ± 1.27 nmol/mL.

What about the SOD [2] of the same molecule?
The SOD was 93.42 ± 9.03 NU/ml.

And the tyrosine [2]?
Its tyrosine is 0.58 ± 0.08 µg.

What about the Ear thickness (mouse eczema model) of the same molecule?
The Ear thickness was 0.248 mm.

Which bioavailability [1] does the source give for O=C(c1ccc(-c2ccccc2-c2nnn[nH]2)cc1)N(c1ncccc1Cl)[C@@H]1CCCNC1 [CLY-19] here?
The bioavailability was 66.3%.

And the MDA [2]?
Its MDA is 11.75 ± 1.26 nmol/mL.

What about the SOD [2] of the same molecule?
The SOD was 96.53 ± 9.21 NU/ml.

What about the tyrosine [2] of the same molecule?
The tyrosine was 0.56 ± 0.07 µg.

And the Ear thickness (mouse eczema model)?
The Ear thickness was 0.253 mm.

Which results are given for NC1CCCC(N(C(=O)c2ccc(-n3nnc4cccnc43)cc2)c2ncccc2Cl)C1 (stereo not shown) [CLY-11]?
bioavailability [1]: 63.5%; MDA [2]: 11.62 ± 1.21 nmol/mL; SOD [2]: 95.13 ± 9.16 NU/ml; tyrosine [2]: 0.54 ± 0.06 µg; Ear thickness (mouse eczema model): 0.278 mm

Which bioavailability [1] does the source give for O=C(c1ccc(-n2nnc3cccnc32)cc1)N(c1ncccc1Cl)[C@@H]1CCNC1 [CLY-8, (R)-4-(3H-[1,2,3]triazolo[4,5-b]pyridin-3-yl)-N-(3-chloropyridin-2-yl)-N-(pyrrolidin-3-yl)benzamide] here?
Its bioavailability is 78.2%.

And the MDA [2]?
Its MDA is 10.59 ± 1.12 nmol/mL.

What about the SOD [2] of the same molecule?
Its SOD is 105.68 ± 9.75 NU/ml.

What about the tyrosine [2] of the same molecule?
The tyrosine was 0.43 ± 0.03 µg.

What about the Ear thickness (mouse eczema model) of the same molecule?
The Ear thickness was 0.245 mm.

What does the source list for O=C(c1ccc(-n2nnc3cccnc32)cc1)N(c1ncccc1Cl)C1CCCC(O)C1 (stereo not shown) [CLY-4]?
bioavailability [1]: 59.5%; MDA [2]: 11.62 ± 1.15 nmol/mL; SOD [2]: 95.12 ± 8.65 NU/ml; tyrosine [2]: 0.53 ± 0.06 µg; Ear thickness (mouse eczema model): 0.323 mm

Which bioavailability [1] does the source give for COC1CCCC(N(C(=O)c2ccc(-n3nnc4cccnc43)cc2)c2ncccc2Cl)C1 (stereo not shown) [CLY-5] here?
Its bioavailability is 53.8%.

And the MDA [2]?
Its MDA is 10.65 ± 1.14 nmol/mL.

And the SOD [2]?
The SOD was 105.89 ± 9.86 NU/ml.

And the tyrosine [2]?
Its tyrosine is 0.43 ± 0.05 µg.

For CCN1CCC[C@@H](N(C(=O)c2ccc(-n3nnc4cccnc43)cc2)c2ncccc2Cl)C1 [CLY-2, (R)-4-(3H-[1,2,3]triazolo[4,5-b]pyridin-3-yl)-N-(3-chloropyridin-2-yl)-N-(1-ethylpiperidin-3-yl)benzamide], which bioavailability [1] is on record?
Its bioavailability is 72.6%.

What about the MDA [2] of the same molecule?
Its MDA is 10.86 ± 1.19 nmol/mL.

What about the SOD [2] of the same molecule?
Its SOD is 105.23 ± 9.82 NU/ml.

And the tyrosine [2]?
The tyrosine was 0.43 ± 0.06 µg.

And the Ear thickness (mouse eczema model)?
The Ear thickness was 0.246 mm.

For CN1CCC[C@@H](N(C(=O)c2ccc(-n3nnc4cccnc43)cc2)c2ncccc2Cl)C1 [CLY-1, (R)-4-(3H-[1,2,3]triazolo[4,5-b]pyridin-3-yl)-N-(3-chloropyridin-2-yl)-N-(1-methylpiperidin-3-yl)benzamide], which bioavailability [1] is on record?
The bioavailability was 69.8%.

And the MDA [2]?
Its MDA is 11.32 ± 1.15 nmol/mL.

What about the SOD [2] of the same molecule?
The SOD was 103.65 ± 9.63 NU/ml.

And the tyrosine [2]?
Its tyrosine is 0.45 ± 0.07 µg.

What about the Ear thickness (mouse eczema model) of the same molecule?
Its Ear thickness is 0.251 mm.

Which bioavailability [1] does the source give for CNC1CCCC(N(C(=O)c2ccc(-n3nnc4cccnc43)cc2)c2ncccc2Cl)C1 (stereo not shown) [CLY-3] here?
Its bioavailability is 69.5%.

And the MDA [2]?
The MDA was 11.57 ± 1.18 nmol/mL.

And the SOD [2]?
Its SOD is 97.45 ± 9.23 NU/ml.

And the tyrosine [2]?
Its tyrosine is 0.51 ± 0.07 µg.

What about the Ear thickness (mouse eczema model) of the same molecule?
Its Ear thickness is 0.297 mm.
